Patent US20250230159A1, “FUSED HETEROCYCLIC COMPOUNDS AS MODULATORS OF RAS SIGNALLING” (Shenzhen Ionova Life Science Co., Ltd., priority 2022, published 2025)
Read-outs that look alike come from different tables or passages of the source.

What was measured:
[1] = target: KRAS-G12C/SOS1 interaction (Homo sapiens (Human), UniProt Q07889); assay: Protein-Protein Interaction (PPI) assay, SOS1-KRAS binding assay kit (HTRF)
Experimental: This Example illustrates that exemplary compounds of the present invention blockade the interaction of SOS1 to KRAS protein.
The ability of a compound of Formula (I) to block the interaction of SOS1 to KRAS was measured using a SOS1-KRAS binding assay kit (CAT #63ADK000CB16PEG, Cisbio). Utilizing HTRF (Homogeneous Time-resolved Fluorescence) technology, the assay enables simple and rapid characterization of compound and antibody blockers in a high throughput format. The interaction between Tag1-SOS1 and Tag2-KRAS-G12C is detected by using anti-Tag1-Terbium antibody (HTRF donor) and anti-Tag2-XL665 antibody (HTRF acceptor). When the donor and acceptor antibodies are brought into close proximity due to SOS1 and KRAS-G12C binding, excitation of the donor antibody triggers fluorescent resonance energy transfer (FRET) towards the acceptor antibody, which in turn emits specifically at 665 nm. This specific signal is directly proportional to the extent of KRAS-G12C/SOS1 interaction.
The assay was carried according to the manufacturer's instructions. Compounds at an initial concentration of 10 mM in DMSO were first serially diluted on a 384-well plate using assay buffer at a ratio of 1:3 for a total of 9 concentrations with each of a volume of 20 μL. Blank buffer was included as the negative control. The final compound solution was in the buffer solution with 1% DMSO. Then, in each well of a 384-well plate, a solution of 2 μL compound solution, 4 μL tagged SOS1 and KRAS (G12C) protein stocks, respectively, and 10 μM GTP was incubated for 15 min. 10 μL mixture of […] antibody and anti-Tag1-Terbium antibody was introduced to each individual well. After 2 hours incubation at room temperature, fluorescence readout was measured with a Pelkin Elmer multiple plate reader VICTOR Nivo.
Excitation was from over a range of 245-395 nm, and emission from the donor (emission 1) was detected at […] and emission from the acceptor (emission 2) was detected at (606.5-623.5) nm. The HTRF ratio was calculated using the formula: (emission 1 @665 nm/emission 2 @620 nm)×10000. Thus, compounds blocking KRAS-G12C/SOS1 interaction will cause a reduction in HTRF signal ratio. The IC50 values were then calculated with the Graph pad Prism software.

pERK in Hela cells = assay: Phospho-ERK (p-ERK) assay in Hela cells; type: cell-based; settings: Homo sapiens, β-actin normalized
Experimental: This Example illustrates that exemplary compounds of the present invention prevent KRas-mediated GTP nucleotide exchange mediated by SOS1 to inhibit KRas activity, thereby inhibiting the generation of the downstream effector pERK.
Hela cells (23,000/w) were seeded in a black clear flat bottom 96-well cell culture plate (Corning, #3904) and incubated at 37° C. overnight. At day 2, cells were dosed with compounds of Formula (I) with a 10 μM starting concentration and serially diluted 3× for a total of 9 concentrations. The cells were incubated for 1 hour with the compounds solubilized in DMSO at 37° C. Cells were immediately fixed by adding 100 μL of 8% formaldehyde to all wells in a fume hood and the plates were incubated for 1 hr at room temperature. The formaldehyde was discarded from the plates and washed 5 times and each time for 5 min with 200 μL of Triton Washing Solution (0.1% Triton in PBS) each time to permeabilize the cells. Cells were then blocked with 150 μL of Odyssey blocking buffer (LI-COR Biosciences #927-50010) at room temperature on a shaker. The blocking buffer was discarded and 50 μL of primary antibodies pERK (cell signaling Technology #4370; Rabbit, 1:500) and β-actin (AF5001; Mouse, 1:2000) diluted in Odyssey blocking buffer was added. The plates were incubated overnight at 4° C. on a shaker.
On day 3, the primary antibody solution was removed. Each plate was washed 5× times with 200 μL of 1×PBST (PBS+0.1% Tween 20) and incubated with 50 μL of secondary antibodies: Anti-Rabbit (LI-COR Biosciences #926-32211) and Anti-Mouse (LI-COR Biosciences #68070) at 1:1000 dilution in Odyssey blocking buffer at room temperature on a shaker for 1 hour (protected from light). The secondary antibody solution as removed and each plate was washed with PBST 5× times. Any liquid remaining was discarded and the plate was imaged using the Licor Odyssey machine according to the manufacturer's instruction, using a set focus length at 3.5 mm and both 800 nm and 700 nm filters. The 3-actin normalized scan values for each well were divided by the average of vehicle wells to get the % of p-ERK inhibition. The IC50 values were then calculated with the Graph pad Prism software. In general, p-ERK IC50 data are in line with the PPI IC50 data.

Sequence of KRAS-G12C/SOS1 interaction (Q07889 whole entry, stated change not applied): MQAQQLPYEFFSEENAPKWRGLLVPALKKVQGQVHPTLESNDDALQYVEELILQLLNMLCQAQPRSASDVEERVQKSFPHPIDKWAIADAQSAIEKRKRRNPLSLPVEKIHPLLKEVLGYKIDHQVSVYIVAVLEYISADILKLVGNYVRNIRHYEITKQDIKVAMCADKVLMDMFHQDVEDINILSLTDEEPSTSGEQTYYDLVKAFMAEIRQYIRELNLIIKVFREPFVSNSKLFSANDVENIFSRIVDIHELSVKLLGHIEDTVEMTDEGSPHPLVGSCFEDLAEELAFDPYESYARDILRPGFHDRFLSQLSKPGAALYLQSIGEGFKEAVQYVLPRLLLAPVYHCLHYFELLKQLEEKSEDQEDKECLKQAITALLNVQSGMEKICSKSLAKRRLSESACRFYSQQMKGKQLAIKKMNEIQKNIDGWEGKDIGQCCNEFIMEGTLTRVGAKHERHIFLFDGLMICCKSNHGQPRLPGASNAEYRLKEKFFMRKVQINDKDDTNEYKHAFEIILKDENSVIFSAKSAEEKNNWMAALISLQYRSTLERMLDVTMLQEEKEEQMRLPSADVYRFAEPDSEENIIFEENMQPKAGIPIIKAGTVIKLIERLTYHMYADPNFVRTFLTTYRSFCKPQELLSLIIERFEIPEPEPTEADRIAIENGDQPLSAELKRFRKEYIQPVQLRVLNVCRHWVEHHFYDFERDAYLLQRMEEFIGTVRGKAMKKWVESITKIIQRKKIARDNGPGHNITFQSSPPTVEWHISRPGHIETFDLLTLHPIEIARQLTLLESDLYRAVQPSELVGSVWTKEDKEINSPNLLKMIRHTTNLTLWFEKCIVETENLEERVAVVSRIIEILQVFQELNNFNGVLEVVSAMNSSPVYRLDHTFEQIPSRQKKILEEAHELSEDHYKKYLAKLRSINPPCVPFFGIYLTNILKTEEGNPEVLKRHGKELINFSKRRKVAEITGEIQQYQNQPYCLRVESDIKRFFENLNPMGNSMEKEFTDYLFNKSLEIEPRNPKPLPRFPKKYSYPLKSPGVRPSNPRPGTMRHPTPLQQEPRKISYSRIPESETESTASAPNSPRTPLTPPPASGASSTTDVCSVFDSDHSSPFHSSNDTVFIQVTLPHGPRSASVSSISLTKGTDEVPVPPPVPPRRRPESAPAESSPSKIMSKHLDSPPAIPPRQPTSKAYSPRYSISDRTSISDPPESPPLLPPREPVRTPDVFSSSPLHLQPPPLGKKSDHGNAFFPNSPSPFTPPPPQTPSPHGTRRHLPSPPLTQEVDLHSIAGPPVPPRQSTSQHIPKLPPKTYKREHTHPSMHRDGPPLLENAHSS

COC1(c2cc3c(N[C@H](C)c4cccc(C(F)F)c4F)ncnc3n3nnnc23)CCN(C(C)=O)CC1 [Example 125]
IC50 ([1]; read-out: PPI Assay IC50): < 100 nM | IC50 (pERK in Hela cells; Table 1, 1 hour with compound): < 100 nM

Cc1nc(N[C@H](C)c2cccc(C(F)F)c2F)c2cc(C(=O)N(C)C)c3nncn3c2n1 [Example 50, (R)-4-((1-(3-(difluoromethyl)-2-fluorophenyl)ethyl)amino)-N,N,2-trimethyl-[1,2,4]triazolo[4′,3′:1,6]pyrido[2,3-d]pyrimidine-6-carboxamide]
IC50 ([1]; read-out: PPI Assay IC50): < 100 nM | IC50 (pERK in Hela cells; Table 1, 1 hour with compound): > 100 nM

Cc1nc(N[C@H](C)c2cccc(C(F)F)c2F)c2cc(N3CCOCC3)c3nncn3c2n1 [Example 74, (R)—N-(1-(3-(difluoromethyl)-2-fluorophenyl)ethyl)-2-methyl-6-morpholino-[1,2,4]triazolo[4′,3′:1,6]pyrido[2,3-d]pyrimidin-4-amine]
IC50 ([1]; read-out: PPI Assay IC50): < 100 nM | IC50 (pERK in Hela cells; Table 1, 1 hour with compound): > 100 nM

C[C@@H](Nc1ncnc2c1cc(C1CCN(S(C)(=O)=O)CC1)c1nnnn12)c1cccc(C(F)F)c1F [Example 146]
IC50 ([1]; read-out: PPI Assay IC50): < 100 nM | IC50 (pERK in Hela cells; Table 1, 1 hour with compound): < 100 nM

CC(=O)N1CCC(O)(c2cc3c(N[C@H](C)c4cccc(C(F)F)c4F)nc(C)nc3n3nnnc23)CC1 [Example 112]
IC50 ([1]; read-out: PPI Assay IC50): < 100 nM | IC50 (pERK in Hela cells; Table 1, 1 hour with compound): > 100 nM

Cc1nc(N[C@H](C)c2cc(N)cc(C(F)(F)F)c2)c2cc(C(=O)N3CCN(C)CC3)c3ncnn3c2n1 [Example 3]
IC50 ([1]; read-out: PPI Assay IC50): < 100 nM | IC50 (pERK in Hela cells; Table 1, 1 hour with compound): < 100 nM

C[C@@H](Nc1ncnc2c1cc(N1CC(C(=O)N(C)C)C1)c1nnnn12)c1cccc(C(F)F)c1F [Example 97]
IC50 ([1]; read-out: PPI Assay IC50): < 100 nM | IC50 (pERK in Hela cells; Table 1, 1 hour with compound): > 100 nM

Cc1nc(N[C@H](C)c2cccc(C(F)F)c2F)c2cc(C(=O)N3CCN(CCO)CC3)c3ncnn3c2n1 [Example 23]
IC50 ([1]; read-out: PPI Assay IC50): < 100 nM | IC50 (pERK in Hela cells; Table 1, 1 hour with compound): > 100 nM

Cc1nc(N[C@H](C)c2cccc(C(F)F)c2F)c2cc(C(=O)N3CCCC34CCOC4)c3nnnn3c2n1 (stereo partly shown) [Example 60]
IC50 ([1]; read-out: PPI Assay IC50): < 100 nM | IC50 (pERK in Hela cells; Table 1, 1 hour with compound): > 100 nM

Cc1nc2c(N3CC4(COC4)C3)cc3c(N[C@H](C)c4cccc(C(F)F)c4F)ncnc3n2n1 [Example 174]
IC50 ([1]; read-out: PPI Assay IC50): < 100 nM | IC50 (pERK in Hela cells; Table 1, 1 hour with compound): < 100 nM

CC(=O)N1CCC(c2cc3c(N[C@H](C)c4cccc(C(F)F)c4F)nc(C)nc3n3cnnc23)C1 (stereo partly shown) [Example 137]
IC50 ([1]; read-out: PPI Assay IC50): < 100 nM | IC50 (pERK in Hela cells; Table 1, 1 hour with compound): > 100 nM

COC1(c2cc3c(N[C@H](C)c4cccc(C(F)F)c4F)ncnc3n3cnnc23)CCN(C(C)=O)CC1 [Example 119]
IC50 ([1]; read-out: PPI Assay IC50): < 100 nM | IC50 (pERK in Hela cells; Table 1, 1 hour with compound): < 100 nM

C[C@@H](Nc1ncnc2c1cc(N1CCOC[C@@H]1C)c1nncn12)c1cc(N)cc(C(F)(F)F)c1 [Example 159]
IC50 ([1]; read-out: PPI Assay IC50): < 100 nM | IC50 (pERK in Hela cells; Table 1, 1 hour with compound): > 100 nM

Cc1nc(N[C@H](C)c2cccc(C(F)F)c2F)c2cc(C(=O)N3CCCC34CCOC4)c3ncnn3c2n1 (stereo partly shown) [Example 31]
IC50 ([1]; read-out: PPI Assay IC50): < 100 nM | IC50 (pERK in Hela cells; Table 1, 1 hour with compound): > 100 nM

Cc1nc(N[C@H](C)c2cccc(C(F)F)c2F)c2cc(C3CC[S+]([O-])CC3)c3nncn3c2n1 (stereo partly shown) [Example 150]
IC50 ([1]; read-out: PPI Assay IC50): < 100 nM | IC50 (pERK in Hela cells; Table 1, 1 hour with compound): > 100 nM

CCS(=O)(=O)N1CCC(c2cc3c(N[C@H](C)c4cccc(C(F)F)c4F)nc(C)nc3n3cnnc23)CC1 [Example 70]
IC50 [1]: > 100 nM | IC50 (pERK in Hela cells; Table 2, 1 hour with compound): > 100 nM

COCC(=O)N1CCC(c2cc3c(N[C@H](C)c4cccc(C(F)F)c4F)ncnc3n3nnnc23)CC1 [Example 148]
IC50 ([1]; read-out: PPI Assay IC50): < 100 nM | IC50 (pERK in Hela cells; Table 1, 1 hour with compound): > 100 nM

CC(=O)N1CCC(O)(c2cc3c(N[C@H](C)c4cccc(C(F)F)c4F)nc(C)nc3n3cnnc23)CC1 [Example 107, (R)-1-(4-(4-((1-(3-(difluoromethyl)-2-fluorophenyl)ethyl)amino)-2-methyl-[1,2,4]triazolo[4′,3′:1,6]pyrido[2,3-d]pyrimidin-6-yl)-4-hydroxypiperidin-1-yl)ethan-1-one]
IC50 ([1]; read-out: PPI Assay IC50): < 100 nM | IC50 (pERK in Hela cells; Table 1, 1 hour with compound): < 100 nM

C[C@@H](Nc1ncnc2c1cc(C1(C)CCS(=O)(=O)CC1)c1nncn12)c1cccc(C(F)F)c1F [Example 129]
IC50 ([1]; read-out: PPI Assay IC50): < 100 nM | IC50 (pERK in Hela cells; Table 1, 1 hour with compound): < 100 nM

Cc1nc(N[C@H](C)c2cccc(C(F)F)c2F)c2cc(C(=O)N3CCN(C)CC3)c3ncnn3c2n1 [Example 19]
IC50 ([1]; read-out: PPI Assay IC50): < 100 nM | IC50 (pERK in Hela cells; Table 1, 1 hour with compound): > 100 nM

COC1(c2cc3c(N[C@H](C)c4cccc(C(F)F)c4F)nc(C)nc3n3c(C)nnc23)CCN(C(C)=O)CC1 [Example 124]
IC50 ([1]; read-out: PPI Assay IC50): < 100 nM | IC50 (pERK in Hela cells; Table 1, 1 hour with compound): < 100 nM

C[C@@H](Nc1ncnc2c1cc(C1(C)CCOCC1)c1nncn12)c1cc(N)cc(C(F)(F)F)c1 [Example 130]
IC50 ([1]; read-out: PPI Assay IC50): < 100 nM | IC50 (pERK in Hela cells; Table 1, 1 hour with compound): > 100 nM

Cc1nc(N[C@H](C)c2cccc(C(F)F)c2F)c2cc(C3=CCS(=O)(=O)CC3)c3nncn3c2n1 [Example 151, (R)-4-(4-((1-(3-(difluoromethyl)-2-fluorophenyl)ethyl)amino)-2-methyl-[1,2,4]triazolo[4′,3′:1,6]pyrido[2,3-d]pyrimidin-6-yl)-3,6-dihydro-2H-thiopyran 1,1-dioxide]
IC50 ([1]; read-out: PPI Assay IC50): < 100 nM | IC50 (pERK in Hela cells; Table 1, 1 hour with compound): > 100 nM

CC(=O)N1CC=C(c2cc3c(N[C@H](C)c4cccc(C(F)F)c4F)nc(C)nc3n3cnnc23)CC1 [Example 100, (R)-1-(4-(4-((1-(3-(difluoromethyl)-2-fluorophenyl)ethyl)amino)-2-methyl-[1,2,4]triazolo[4′,3′:1,6]pyrido[2,3-d]pyrimidin-6-yl)-3,6-dihydropyridin-1(2H)-yl)ethan-1-one]
IC50 ([1]; read-out: PPI Assay IC50): < 100 nM | IC50 (pERK in Hela cells; Table 1, 1 hour with compound): > 100 nM

Cc1nc(N[C@H](C)c2cccc(C(F)F)c2F)c2cc(N3CCOCC3=O)c3nncn3c2n1 [Example 163]
IC50 ([1]; read-out: PPI Assay IC50): < 100 nM | IC50 (pERK in Hela cells; Table 1, 1 hour with compound): < 100 nM

Cc1nc(N[C@H](C)c2cccc(C(F)F)c2F)c2cc(C3=CC[S+]([O-])CC3)c3nncn3c2n1 (stereo partly drawn) [Example 149, 4-(4-(((R)-1-(3-(difluoromethyl)-2-fluorophenyl)ethyl)amino)-2-methyl-[1,2,4]triazolo[4′,3′:1,6]pyrido[2,3-d]pyrimidin-6-yl)-3,6-dihydro-2H-thiopyran 1-oxide]
IC50 [1]: > 100 nM | IC50 (pERK in Hela cells; Table 2, 1 hour with compound): > 100 nM

Cc1nc(N[C@H](C)c2cccc(C(F)F)c2F)c2cc(C(=O)N3C[C@H]4COC[C@H]4C3)c3ncnn3c2n1 [Example 29]
IC50 ([1]; read-out: PPI Assay IC50): < 100 nM | IC50 (pERK in Hela cells; Table 1, 1 hour with compound): < 100 nM

CC(=O)N1CCC(O)(c2cc3c(N[C@H](C)c4cccc(C(F)F)c4F)ncnc3n3cnnc23)CC1 [Example 108]
IC50 ([1]; read-out: PPI Assay IC50): < 100 nM | IC50 (pERK in Hela cells; Table 1, 1 hour with compound): < 100 nM

Cc1nc(N[C@H](C)c2cccc(C(F)F)c2F)c2cc(C(=O)N3CCC4(COC4)C3)c3ncnn3c2n1 [Example 33]
IC50 ([1]; read-out: PPI Assay IC50): < 100 nM | IC50 (pERK in Hela cells; Table 1, 1 hour with compound): > 100 nM
